Source: patent publication US7056498B2, “Composition containing aminophenol derivative, use thereof, and process for dissolving aminophenol derivative” (L'Oreal, priority 1999, dated 2006)

Key:
Type in all cases: physicochemical
[1] = Amount of aminophenol derivative dissolved in various solubilizing agents
Method: The amount of aminophenol derivative (N-ethyloxyearbonyl-4-para-aminophenol, or EPAP, and N-cholesteryloxyearbonyl-4-para-aminophenol, or CPAP) which can be dissolved in various solubilizing agents, at 60° C., was compared in Tables 1 and 2 below.

[2] = Storage stability of the compositions for two months (viscosity, colour, odour, HPLC content, crystals); settings: two months at room temperature and at 45° C.
Method: After storage for two months at room temperature and at 45° C., no change in the viscosity or colour of the composition and no release of odour were observed.

[3] = Amount of aminophenol derivative dissolved in various solubilizing agents; settings: in caprylic/capric triglycerides, at room temperature
[4] = in apricot kernel oil, at 60° C.
[5] = in mixture of oxyethylenated (26 EO) oxypropylenated (26 PO) butyl alcohol and oxyethylenated (40 EO) hydrogenated castor oil
[6] = in oxyethylenated (7 EO) hydrogenated castor oil, at 60° C.
[7] = in oxyethylenated (20 EO) oxypropylenated (5 PO) cetyl alcohol, at 60° C.
[8] = in oxyethylenated (20 EO) sorbitan monostearate, at 60° C.
[9] = in oxyethylenated (40 EO) hydrogenated castor oil, at 60° C.
[10] = in oxyethylenated (60 EO) hydrogenated castor oil, at 60° C.
[11] = in composition of Example 2 (fluid emulsion)
[12] = in composition of Example 3 (bleaching fluid)
[13] = in composition of Example 1 (fluid emulsion)

Row | SMILES | Amount dissolved ([1]; in Laureth-4, at 60° C.) [%] | Amount dissolved [1, 4] | Amount dissolved ([1]; in hexyldecanol, at 60° C.) | Amount dissolved ([1]; in mineral oil, at 60° C.) | Amount dissolved [1, 5] [%] | Amount dissolved ([1]; in octyldodecanol, at 60° C.) | Amount dissolved [1, 6] [%] | Amount dissolved [1, 7] [%] | Amount dissolved [1, 8] [%] | Amount dissolved [1, 9] [%] | Amount dissolved [1, 10] [%] | other results
1 | CC(C)CCC[C@@H](C)[C@H]1CC[C@H]2[C@@H]3CC=C4C[C@@H](OC(=O)Nc5ccc(O)cc5)CC[C@]4(C)[C@H]3CC[C@]12C [CPAP, N-cholesteryloxycarbonyl-4-para-aminophenol] | 4.8 | insoluble | insoluble | insoluble | 14.2 | 0.5% | 12.5 | 14.2 | 14.2 | 16.5 | 16.5 | Amount dissolved ([1]; in Laureth-23, at 60° C.): 4.8%; Amount dissolved ([1]; in caprylic/capric triglycerides, at 60° C.): 0.5%; Decrease in compound content, as determined by HPLC [2, 11]: no decrease; Formation of crystals of the compound [2, 11]: no formation of crystals; Decrease in compound content, as determined by HPLC [2, 12]: no decrease; Formation of crystals of the compound [2, 12]: no formation of crystals
2 | CCOC(=O)Nc1ccc(O)cc1 [EPAP, N-ethyloxycarbonyl-4-para-aminophenol] | 25 | insoluble | insoluble | insoluble | 20 | insoluble | 16.6 | 16.5 | 50 | 16.5 | 16.5 | Amount dissolved ([1]; in caprylic/capric triglycerides, 80° C.): 4.7% (80° C.);; Amount dissolved ([1]; in mixture of oxyethylenated (9 EO) tridecyl alcohol and oxyethylenated (40 EO) hydrogenated castor oil): 25%; Decrease in compound content, as determined by HPLC [2, 13]: no decrease; Formation of crystals of the compound [2, 13]: no formation of crystals; Recrystallization after dissolution [3]: recrystallizes
